pIC50: −log10 of the molar value. Blank lines part the entries; values can stand above or below the molecule they belong to.
What was measured:
[1] = molecular target: T1, Gastrin-releasing peptide receptor (Homo sapiens, UniProt P30550); test: Displacement of [125I]-Tyr4-bombesin from GRP receptor in human PC3 cells after 1 hr by gamma-counting analysis; format: cell-based, PC-3
[2] = molecular target: T1, Gastrin-releasing peptide receptor; test: Displacement of [125I]-Tyr4-bombesin from GRP receptor in human PC3 cells; format: cell-based, PC-3
[3] = Half life of the compound in water; format: physicochemical
[4] = Ratio of biodistribution in tumor to blood of NMRI nude mouse xenografted with human PC3 cells after 120 mins by gamma-counting analysis; format: ADME, organism-based, PC-3; conditions: tumour, 2 h
Mus musculus [5] = test: Biodistribution in gallbladder of NMRI nude mouse xenografted with human PC3 cells after 120 mins by gamma-counting analysis; format: ADME, organism-based, Gall bladder, PC-3; conditions: in vivo, 2 h
Mus musculus [6] = test: Biodistribution in tumor of NMRI nude mouse xenografted with human PC3 cells after 120 mins by gamma-counting analysis; format: ADME, organism-based, Neoplasm, PC-3; conditions: in vivo, 2 h
Pancreas = test: Biodistribution in pancreas of NMRI nude mouse xenografted with human PC3 cells after 120 mins by gamma-counting analysis; format: ADME, organism-based, PC-3; conditions: in vivo, 2 h
Blood = test: Biodistribution in blood of NMRI nude mouse xenografted with human PC3 cells after 120 mins by gamma-counting analysis; format: ADME, organism-based, PC-3; conditions: in vivo, 2 h
Spleen = test: Biodistribution in spleen of NMRI nude mouse xenografted with human PC3 cells after 120 mins by gamma-counting analysis; format: ADME, organism-based, PC-3; conditions: in vivo, 2 h
Kidney = test: Biodistribution in kidney of NMRI nude mouse xenografted with human PC3 cells after 120 mins by gamma-counting analysis; format: ADME, organism-based, PC-3; conditions: in vivo, 2 h
[7] = Lipophilicity, log D of the compound; format: physicochemical; conditions: octanol/water
Intestine = test: Biodistribution in intestine of NMRI nude mouse xenografted with human PC3 cells after 120 mins by gamma-counting analysis; format: ADME, organism-based, PC-3; conditions: in vivo, 2 h
Liver = test: Biodistribution in liver of NMRI nude mouse xenografted with human PC3 cells after 120 mins by gamma-counting analysis; format: ADME, organism-based, PC-3; conditions: in vivo, 2 h
[8] = Drug metabolism in PBS buffer assessed as compound hydrolysis; format: physicochemical
[9] = Drug metabolism in 0.9% NaCl assessed as compound hydrolysis; format: physicochemical

T1 sequence (P30550 whole entry): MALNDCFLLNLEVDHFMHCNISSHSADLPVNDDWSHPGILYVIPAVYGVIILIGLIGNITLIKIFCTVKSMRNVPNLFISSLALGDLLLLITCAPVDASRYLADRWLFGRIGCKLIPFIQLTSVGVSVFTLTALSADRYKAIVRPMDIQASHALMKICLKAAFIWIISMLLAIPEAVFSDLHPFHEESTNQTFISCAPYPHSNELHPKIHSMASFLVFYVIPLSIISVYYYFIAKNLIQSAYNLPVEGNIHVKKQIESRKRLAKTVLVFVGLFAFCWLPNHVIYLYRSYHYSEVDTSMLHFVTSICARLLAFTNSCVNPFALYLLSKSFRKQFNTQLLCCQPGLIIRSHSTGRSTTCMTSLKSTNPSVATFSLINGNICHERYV

SMILES: CC(C)(C)[Si](F)(CCn1cc(CC(N)C(=O)O)nn1)C(C)(C)C (configuration not stated)
half-life [3]: 16 h

SMILES: CC(C)(C)[Si](F)(c1ccc(CC(=O)NCc2ccccc2)cc1)C(C)(C)C
half-life [3]: > 300 h

SMILES: CC(C)(C)[Si]([18F])(CCO)C(C)(C)C
half-life [3]: 8 h
Drug metabolism [8]: Active
Drug metabolism [9]: Active

Results, then the molecule that gave them:

pIC50 [1]: 8.08
SMILES: CC(C)C[C@H](NC(=O)C[C@H](O)[C@H](CC(C)C)NC(=O)[C@H](Cc1cnc[nH]1)NC(=O)CN(C)C(=O)[C@@H](NC(=O)[C@H](C)NC(=O)[C@H](Cc1c[nH]c2ccccc12)NC(=O)[C@H](CCC(N)=O)NC(=O)CCCCNC(=O)[C@H](CS(=O)(=O)O)NC(=O)[C@H](CS(=O)(=O)O)NC(=O)Cc1ccc([Si](F)(C(C)(C)C)C(C)(C)C)cc1)C(C)C)C(N)=O

pIC50 [2]: 8.28
SMILES: CSCC[C@H](NC(=O)[C@H](CC(C)C)NC(=O)[C@H](Cc1cnc[nH]1)NC(=O)CNC(=O)[C@@H](NC(=O)[C@H](C)NC(=O)[C@H](Cc1c[nH]c2ccccc12)NC(=O)[C@H](CCC(N)=O)NC(=O)[C@H](CC(N)=O)NC(=O)CNC(=O)[C@H](CC(C)C)NC(=O)[C@H](CCCCNC(=O)c1ccc(F)cc1)NC(=O)[C@H](CCC(N)=O)NC(=O)[C@@H]1CCC(=O)N1)C(C)C)C(N)=O

Ratio [4]: 0.95
Drug uptake (Mus musculus [5]): 146 % ID/g
Drug uptake (Mus musculus [6]): 0.4 % ID/g
Drug uptake (Pancreas): 4.08 % ID/g
Drug uptake (Blood): 0.42 % ID/g
Drug uptake (Spleen): 0.46 % ID/g
Drug uptake (Kidney): 1.73 % ID/g
logD [7]: 1.3
Drug uptake (Intestine): 16 % ID/g
Drug uptake (Liver): 4.4 % ID/g
SMILES: CC(C)C[C@H](NC(=O)C[C@H](O)[C@H](CC(C)C)NC(=O)[C@H](Cc1cnc[nH]1)NC(=O)CN(C)C(=O)[C@@H](NC(=O)[C@H](C)NC(=O)[C@H](Cc1c[nH]c2ccccc12)NC(=O)[C@H](CCC(N)=O)NC(=O)CCCCNC(=O)[C@H](CCCNC(=N)N)NC(=O)Cc1ccc([Si]([18F])(C(C)(C)C)C(C)(C)C)cc1)C(C)C)C(N)=O
